Measured values from paper PMC10363032 (Cancer Chemotherapy and Pharmacology, 2023).
pIC50: −log10 of the molar value.

What was measured:
clinical = conditions: human, in vivo, 225 mg
Experimental: PK parameters were derived using non-compartmental methods with Phoenix® WinNonlin® version 6.4 (Certara, LP, Princeton, NJ, USA). All descriptive and inferential statistical computations were performed using SAS® version 9.1 (SAS Institute, Cary, NC, USA).

CYP3A = conditions: read-out: IC50, reversible inhibition of CYP3A; ref AstraZeneca, data on file, 2020; 16; cited from earlier work
[1] = human, in vivo
Experimental: (§1) Safety was appraised throughout the study by the assessment of clinical and laboratory adverse events (AEs; graded by Common Terminology Criteria for Adverse Events [CTCAE], version 4.03), physical examination, and evaluation of vital signs and laboratory data (clinical chemistry and hematology).
(§2) Patients were evaluated according to the treatment received.

Wee1 = test system: Wee1; parameters: method as in PMID 25964244, PMID 19887545; conditions: read-out: half-maximal inhibitory concentration (IC50); cited from earlier work
[2] = safety and tolerability, adverse events (CTCAE version 4.03) in patients
Experimental: as §1, §2

[3] = Adavosertib n = 30, Adavosertib + cocktail n = 26

C=CCn1c(=O)c2cnc(Nc3ccc(N4CCN(C)CC4)cc3)nc2n1-c1cccc(C(C)(C)O)n1 [adavosertib]
CLss/F, arithmetic mean (SD) (clinical): 38.0 (12.11) L/h
CLss/F, median (minimum, maximum) (clinical): 36.9 (24.3, 63.5) L/h
Tmax (clinical): 3 h
intra-patient variability for AUC0–12 and Cmax (clinical): < 10%
AUC(0-t) (clinical; AUC0–12, arithmetic mean (SD)): 12.7 µM·h
AUC(0-t) (clinical; AUC0–12, geometric mean): 12.2 µM·h
AUC(0-t) (clinical; AUC0–12, median (minimum, maximum)): 12 µM·h
Cmax (clinical; arithmetic mean (SD)): 1490 nM
Cmax (clinical; geometric mean): 1440 nM
Cmax (clinical; median (minimum, maximum)): 1420 nM
pIC50 (CYP3A): 4.85
AEs with an outcome of death [1]: No AEs with an outcome of death were observed
pIC50 (Wee1): 8.28
Acute kidney injury (causally related), any grade [2, 3]: 1 (3.3) Number of patients (%)
Acute kidney injury (causally related), grade ≥3 [2, 3]: 1 ( 3. 3) Number of patients (%)
Anemia (causally related), any grade [2, 3]: 0 Number of patients (%)
Anemia (causally related), grade ≥3 [2, 3]: 0 Number of patients (%)
Any AE (causally related), any grade [2, 3]: 11 (36.7) Number of patients (%)
Any AE (causally related), grade ≥3 [2, 3]: 4 (13.3) Number of patients (%)
Blood and lymphatic system disorders (causally related), any grade [2, 3]: 2 ( 6. 7) Number of patients (%)
Blood and lymphatic system disorders (causally related), grade ≥3 [2, 3]: 1 (3.3) Number of patients (%)
Blood creatinine increased (causally related), any grade [2, 3]: 0 Number of patients (%)
Blood creatinine increased (causally related), grade ≥3 [2, 3]: 0 Number of patients (%)
Decreased appetite (causally related), any grade [2, 3]: 0 Number of patients (%)
Decreased appetite (causally related), grade ≥3 [2, 3]: 0 Number of patients (%)
Dehydration (causally related), any grade [2, 3]: 1 (3.3) Number of patients (%)
Dehydration (causally related), grade ≥3 [2, 3]: 1 (3.3) Number of patients (%)
Diarrhea (causally related), any grade [2, 3]: 10 (33.3) Number of patients (%)
Diarrhea (causally related), grade ≥3 [2, 3]: 3 (10.0) Number of patients (%)
Dizziness (causally related), any grade [2, 3]: 0 Number of patients (%)
Dizziness (causally related), grade ≥3 [2, 3]: 0 Number of patients (%)
Fatigue (causally related), any grade [2, 3]: 0 Number of patients (%)
Fatigue (causally related), grade ≥3 [2, 3]: 0 Number of patients (%)
Flushing (causally related), any grade [2, 3]: 0 Number of patients (%)
Flushing (causally related), grade ≥3 [2, 3]: 0 Number of patients (%)
Gastrointestinal disorders (causally related), any grade [2, 3]: 11 (36.7) Number of patients (%)
Gastrointestinal disorders (causally related), grade ≥3 [2, 3]: 3 (10.0) Number of patients (%)
General disorders and administration site conditions (causally related), any grade [2, 3]: 0 Number of patients (%)
General disorders and administration site conditions (causally related), grade ≥3 [2, 3]: 0 Number of patients (%)
Hypokalemia (causally related), any grade [2, 3]: 1 (3.3) Number of patients (%)
Hypokalemia (causally related), grade ≥3 [2, 3]: 1 (3.3) Number of patients (%)
Investigations (causally related), any grade [2, 3]: 2 (6.7) Number of patients (%)
Investigations (causally related), grade ≥3 [2, 3]: 0 Number of patients (%)
Metabolism and nutrition disorders (causally related), any grade [2, 3]: 2 (6.7) Number of patients (%)
Metabolism and nutrition disorders (causally related), grade ≥3 [2, 3]: 2 ( 6. 7) Number of patients (%)
Muscle spasms (causally related), any grade [2, 3]: 0 Number of patients (%)
Muscle spasms (causally related), grade ≥3 [2, 3]: 0 Number of patients (%)
Musculoskeletal and connective tissue disorders (causally related), any grade [2, 3]: 0 Number of patients (%)
Musculoskeletal and connective tissue disorders (causally related), grade ≥3 [2, 3]: 0 Number of patients (%)
Nasal ulcer (causally related), any grade [2, 3]: 0 Number of patients (%)
Nasal ulcer (causally related), grade ≥3 [2, 3]: 0 Number of patients (%)
Nausea (causally related), any grade [2, 3]: 3 (10.0) Number of patients (%)
Nausea (causally related), grade ≥3 [2, 3]: 1 (3.3) Number of patients (%)
Nervous system disorders (causally related), any grade [2, 3]: 0 Number of patients (%)
Nervous system disorders (causally related), grade ≥3 [2, 3]: 0 Number of patients (%)
Neutropenia (causally related), any grade [2, 3]: 1 (3.3) Number of patients (%)
Neutropenia (causally related), grade ≥3 [2, 3]: 1 (3.3) Number of patients (%)
Pancreatitis (causally related), any grade [2, 3]: 1 (3.3) Number of patients (%)
Pancreatitis (causally related), grade ≥3 [2, 3]: 1 (3.3) Number of patients (%)
Renal and urinary disorders (causally related), any grade [2, 3]: 1 (3.3) Number of patients (%)
Renal and urinary disorders (causally related), grade ≥3 [2, 3]: 1 (3.3) Number of patients (%)
Respiratory, thoracic and mediastinal disorders (causally related), any grade [2, 3]: 0 Number of patients (%)
Respiratory, thoracic and mediastinal disorders (causally related), grade ≥3 [2, 3]: 0 Number of patients (%)
Stomatitis (causally related), any grade [2, 3]: 0 Number of patients (%)
Stomatitis (causally related), grade ≥3 [2, 3]: 0 Number of patients (%)
Thrombocytopenia (causally related), any grade [2, 3]: 1 (3.3) Number of patients (%)
Thrombocytopenia (causally related), grade ≥3 [2, 3]: 0 Number of patients (%)
Vascular disorders (causally related), any grade [2, 3]: 0 Number of patients (%)
Vascular disorders (causally related), grade ≥3 [2, 3]: 0 Number of patients (%)
Vomiting (causally related), any grade [2, 3]: 6 (20.0) Number of patients (%)
Vomiting (causally related), grade ≥3 [2, 3]: 1 (3.3) Number of patients (%)
Weight decreased (causally related), any grade [2, 3]: 2 (6.7) Number of patients (%)
Weight decreased (causally related), grade ≥3 [2, 3]: 0 Number of patients (%)
Acute kidney injury (causally related), any grade ([2]; Total (n = 30)): 1 (3.3) Number of patients (%)
Acute kidney injury (causally related), grade ≥3 ([2]; Total (n = 30)): 1 (3.3) Number of patients (%)
Anemia (causally related), any grade ([2]; Total (n = 30)): 1 (3.3) Number of patients (%)
Anemia (causally related), grade ≥3 ([2]; Total (n = 30)): 1 (3.3) Number of patients (%)
